Results from publication PMC12286057, “An Investigation of 5-Halogenated N-Indolylsulfonyl-2-fluorophenol Derivatives as Aldose Reductase Inhibitors” (Medicines, 2025).

Legend:
[1] = target: T1, partially purified ALR2 from rat lenses (Rattus norvegicus, UniProt P07943); experiment: ALR2 enzymatic assay (NADPH consumption, DL-glyceraldehyde substrate); assay type: biochemical; conditions: for inhibition at 10 µM: cut-off concentration of 10 μM; for IC50: partially purified ALR2 from rat lenses, 0.1–10 μM concentrations; for fold activity loss compared to lead compound IIc: IC50 ratio versus IIc, rat ALR2 enzyme; for fold less strong ARI than sorbinil and epalrestat: IC50 ratio versus the reference drugs sorbinil and epalrestat
T1 construct: Supernatant containing the partially purified ALR2 enzyme was used directly or stored at −80 °C for less than 24 h; from tissue; host or cells: eye lenses of Fischer-344 rats (homogenate supernatant after 40% ammonium sulfate precipitation)
Protocol: The ALR2 enzyme was isolated from rat lenses of the Fischer-344 series. Laboratory animal handling and experiment conduct was carried out in accordance with the Law on the Protection of Laboratory Animals (Hellenic Republic) and was declared to the Veterinary Authority of the Republic of Greece. The animal study protocol was approved by the Ethics Committee of the Prefecture of Central Macedonia (protocol code 270079/2500) for studies involving animals.
Eye lenses were quickly removed from Fischer-344 rats following euthanasia. The enzyme was partially purified by a well-established and previously reported procedure. The lenses were removed from euthanized rats and were quickly stored at −80 °C until used. Great care was taken to clean the lenses mechanically from other ocular tissues and debris. The lenses were homogenized in 5 vol of cold ultrapure water (0.5 mL per lens), and the homogenate was centrifuged at 10,000 × rpm at 0–4 °C for 15 min. The supernatant was then collected, precipitated with a saturated solution of ammonium sulfate (40% saturation), and centrifuged at 10,000 × rpm at 0–4 °C for 15 min. Supernatant containing the partially purified ALR2 enzyme was used directly or stored at −80 °C for less than 24 h.
ALR2 activity was assayed spectrophotometrically by determining NADPH consumption (ε340nm = 6300 M^−1 × cm^−1). The examined compounds were dissolved in DMSO (1% final concentration) at appropriate final concentrations (0.1–10 μM). The effects of the compounds on enzyme activity were determined by including the inhibitor in the reaction mixture at required concentrations. At the same concentration, the inhibitor was included in the reference blank. The reference blank contained all the following reagents except the substrate to correct NADPH oxidation, which is not associated with the substrate’s reduction. Briefly, 2.4 mL of 66.7 mM phosphate Na^+/K^+ assay buffer (pH = 6.2), 100 μL of 3.2 mM NADPH solution in assay buffer, 300 μL of enzyme supernatant, 90 μL of ultrapure water, and 10 μL of solution of tested inhibitors in DMSO in appropriate concentration or pure DMSO (served as control) were mixed in that order in a glass vial. Subsequently, 1 mL of that mixture was transferred to each 1.5 mL-UV quartz cuvette (10 mm path length), and 100 μL of assay buffer (reference blank) or 110 mM DL-glyceraldehyde solution (10 mM final concentration) in assay buffer was added to initiate the enzyme reaction. ALR2 activity was assayed by monitoring NADPH consumption (0.1 mM final concentration) at 340 nm for 5 min after incubating reaction mixtures for 1 min at 30 °C. […] IC50 values were determined by least-squares regression analysis of the semi-logarithmic dose–inhibition curves. Each curve was generated using at least five compounds’ concentrations, causing inhibition from at least 15–80% in at least three triplicate repetitions.

[2] = test system: ALR2; design: method as in Mylari et al. [49]; conditions: preclinical studies; ref Mylari et al. [49]; cited from earlier work
[3] = test system: Caco-2; design: method as in Mylari et al. [49]; conditions: ref Mylari et al. [49]; cited from earlier work
[4] = test system: diabetic rats; design: method as in Mylari et al. [49]; conditions: lens, retina and sciatic nerve of diabetic rats; ref Mylari et al. [49]; cited from earlier work
[5] = design: method as in Mylari et al. [49]; conditions: ref Mylari et al. [49], cited from earlier work

inhibition at 10 µM [1]	ALR2 inhibitory activity at 1 μM ([1]; lower dose of 1 μM)	IC50 [1]	fold activity loss compared to lead compound IIc [1]	fold less strong ARI than sorbinil and epalrestat [1]	SMILES	IC50 [2]	Caco-2 transcellular permeability [3]	in vivo normalization of elevated sorbitol and fructose [4]	oral bioavailability ([5]; at 2 mg/kg)	plasma half-life ([5]; preclinical studies)
43.7 ± 1.3%	completely inactive	> 10 µM			Oc1ccc(-n2ccc3cc(Cl)ccc32)cc1F [Compound 3d, 4-(5-chloro-1H-indol-1-yl)-2-fluorophenol]					
77.6 ± 1.3%		2.22 ± 0.28 µM	2.3 fold	9 fold	O=S(=O)(c1ccc(O)c(F)c1)n1ccc2cc(Cl)ccc21 [Compound 3b, 4-((5-chloro-1H-indol-1-yl)sulfonyl)-2-fluorophenol]					
74.5 ± 2.6%		3.02 ± 0.45 µM	3.1 fold	12 fold	O=S(=O)(c1ccc(O)c(F)c1)n1ccc2cc(F)ccc21 [Compound 3a, 4-((5-fluoro-1H-indol-1-yl)sulfonyl)-2-fluorophenol]					
80.6 ± 2%		1.85 ± 0.15 µM	1.9 fold	7.4 fold	O=S(=O)(c1ccc(O)c(F)c1)n1ccc2cc(Br)ccc21 [Compound 3c, 4-((5-bromo-1H-indol-1-yl)sulfonyl)-2-fluorophenol]					
					Cc1c(S(=O)(=O)c2ccc(=O)[nH]n2)oc2ccc(Cl)cc12 [CP-744809, 6-(5-chloro-3-methylbenzofuran-2-sulfonyl)-2H-pyridazin-3-one]	0.00084 µM	> 10^−5 cm/s	remarkable efficiency in vivo in normalizing elevated sorbitol and fructose	98%	23 to 29 h
